According to patent EP4509142A1, “FGFR4 AS TARGET IN CANCER TREATMENT” (Ona Therapeutics S.L., priority 2023, dated 2025):
pIC50: −log10 of the molar value. Where two headings read alike, the source gives them in different places.

Columns and labels:
Experiment in all cases: Dose-response to palbociclib, CyQUANT NF cell proliferation after 4 days
Assay type in all cases: cell-based
[1] = system: MCF7; settings: Homo sapiens; parental sensitive MCF7
Description: (§1) The inventors next generated experimental cell lines models with acquired resistance to palbociclib derived from commercially available breast cancer cell lines MCF7 and T47D (ATCC), which were cultured according to supplier's recommendation. An MCF7-derived palbociclib-resistant (MCF7-PR) and a T47D-derived palbociclib-resistant (T47D-PR) cell lines were established by treating MCF7 and T47D with palbociclib for 6 months, starting at low concentration (1 nM) and increasing them at each passage until reaching 1 µM). MCF7-PR and T47D-PR cells were maintained in complete medium with 500 nM of palbociclib. The IC50 of sensitive MCF7 and T47D as well as derived palbociclib-resistant MCF7-PR and T47D-PR cell lines was evaluated by seeding 5000 tumor cells per well in 96-well plates and adding the following day increasing doses of Palbociclib. Proliferation was assessed after 4 days with CyQUANT NF Cell Proliferation (ThermoFisher Scientific) according to manufacturer's instructions. Fluorescence measurements were taken using FL800 Fluorescence plate reader with excitation at 485 nm and emission detection at 520 nm. Surviving fraction was calculated relative to untreated control cells using the formula: % Cell viability = (treated/untreated)*100 and IC^50 values were calculated with a non-linear regression model using GraphPad PRISM software.

[2] = system: T47D-PR; settings: palbociclib-resistant T47D-PR
Description: as §1

[3] = system: T47D; settings: Homo sapiens; parental sensitive T47D
Description: as §1

[4] = system: MCF7-PR
Description: as §1
(§2) Next, FGFR4-depletion was induced by means of stable shRNA expression and confirmed by Western blotting using standard procedures. Specifically, sensitive MCF7 and resistant MCFR7-PR and ZR751 were infected with two independent stable FGFR4 shRNAs (shFGFR4#1 and shFGFR4#2) and, as a control, a non-targeting scramble shRNA (shControl) (Fig.2C-2D). Response to palbociclib was evaluated by incubating the cells with increasing concentrations of palbociclib as described above.

[5] = system: ZR751; settings: Homo sapiens, ZR-75-1
Description: as §1, §2
In order to validate FGFR4 as a driver of CDK4/6i resistance, the inventors developed ZR751 cells that overexpressed wild-type FGFR4 (FGFR4wt) or constitutively active FGFR4 (FGFR4 Y367C) (Roidl et al., 2010). Control cells were infected with the backbone vector expressing red fluorescent protein (RFP).

## CC(=O)c1c(C)c2cnc(Nc3ccc(N4CCNCC4)cn3)nc2n(C2CCCC2)c1=O [palbociclib]
[1]
  pIC50: 6.60
[2]
  pIC50: 5.74
[3]
  pIC50: 7.30
[4]; FGFR4 knockdown shFGFR4#1, read-out: IC50 MCF7-PR shFGFR4#1
  pIC50: 6.24
[4]; FGFR4 knockdown shFGFR4#2, read-out: IC50 MCF7-PR shFGFR4#2
  pIC50: 6.35
[4]; non-targeting scramble shRNA, read-out: IC50 MCF7-PR shControl
  pIC50: 5.81
[4]; palbociclib-resistant MCF7-PR, read-out: IC50 MCF7-PR
  pIC50: 5.70
[5]; FGFR4 knockdown shFGFR4#1, read-out: IC50 ZR751 shFGFR4#1
  pIC50: 7.10
[5]; FGFR4 knockdown shFGFR4#2, read-out: IC50 ZR751 shFGFR4#2
  pIC50: 6.90
[5]; control cells with backbone vector expressing RFP, read-out: IC50 ZR751 RFP
  pIC50: 6.45
[5]; non-targeting scramble shRNA, read-out: IC50 ZR751 shControl
  pIC50: 5.42
[5]; overexpressing wild-type FGFR4, read-out: IC50 ZR751 FGFR4wt
  pIC50: ~2.38
